Assay results from patent publication US5534497A, “Technetium chelates to be used for determining the renal function” (Mallinckrodt Medical, Inc., priority 1986, dated 1996).

Legend:
[1] = glomerular filtration about 125 ml per minute, total renal clearance 600 to 700 ml per minute; cited from earlier work
[2] = Biodistribution in mice by organ uptake measurements, relative to Tc99m-MAG3 (iodo-131-Hippuran as reference standard); assay type: in vivo; details: for Blood: ratio of uptake of compound to uptake of Tc99m-MAG3 / Hepatic (system): ratio of uptake of compound to uptake of Tc99m-MAG3 / Intestines: ratio of uptake of compound to uptake of Tc99m-MAG3 / Kidneys: ratio of uptake of compound to uptake of Tc99m-MAG3 / Liver: ratio of uptake of compound to uptake of Tc99m-MAG3 / Remainder / Rest of the body: ratio of uptake of compound to uptake of Tc99m-MAG3 / Renal (system): ratio of uptake of compound to uptake of Tc99m-MAG3 / Stomach: ratio of uptake of compound to uptake of Tc99m-MAG3 / Urine: ratio of uptake of compound to uptake of Tc99m-MAG3: intravenous, 10 minutes after administration, each normalised to iodo-131-Hippuran; for Secretion characteristics / organ distribution compared with Tc99m-MAG3 (in words): secretion in urine, retention in kidneys, liver, intestines
Procedure: Tc99m-MAGAG-DA, separated by HPLC, is diluted with physiological saline solution to a concentration of 370 kilobecquerel per mi. Iodo-131-Hippuran is added to this solution as a reference standard. An amount of 0.1 ml of this mixture is injected intravenously into each of the eight mice, so that 37 kilobecquerel of Tc99m-MAGAG-DA and 18.5 kilobecquerel of iodo-131-Hippuran are injected per animal. Measures are taken to collect all the excreted urine. 10 Minutes after the administration the mice are sacrificed. It is ensured that all the blood is collected. All parts of the body are brought in separate tubes and the activity of Tc99m and I131 is determined for each part of the body. From the measured results the relative quantity of both tracer products in urine, kidneys, intestines. liver, blood and the collective remainder of the body is computed. In the same manner, Tc99m-MAGA-DB, separated by HPLC, and Tc99m-mercaptoacetylglycylglycylglycine (Tc99m-MAG3), purified by HPLC, both with iodo-131-Hippuran as a reference standard, are tested in two other groups of 8 and 6 mice, respectively. For all three Tc99m-labelled compounds -- MAGAG-DA, MAGAG-DB and MAG3 -- the relative percentages of Tc99m activity in the various organs are calculated with respect to iodo-131-Hippuran. After this, the ratios of Tc99m-MAGAG-DA and -DB can be calculated with respect to Tc99m-MAG3 in the various organs.
In the same ray as described in Example III the biodistribution of the above compound in mice is determined relative to that of Tc99m-MAG3 by organ uptake measurements.
In the same way as described in Example III the biodistribution of the above compound in mice is determined relative to that of Tc99m-MAG3 by organ uptake measurements.

[3] = background statement; cited from earlier work

O=C([O-])CN(CCN(CC(=O)[O-])CC(=O)[O-])CCN(CC(=O)[O-])CC(=O)[O-].[99Tc+4] [chelate of DTPA, Tc99m-diethylene triamine pentascetic acid]
clearance [1]: 100 ml of blood plasma per minute

Tc99m-mercaptoacetyl-D-alanylglycylglycine [Tc99m-MAAG2-DB]
Blood: ratio of uptake of compound to uptake of Tc99m-MAG3 [2]: 1.17
Hepatic (system): ratio of uptake of compound to uptake of Tc99m-MAG3 [2]: 0.84
Intestines: ratio of uptake of compound to uptake of Tc99m-MAG3 [2]: 0.95
Kidneys: ratio of uptake of compound to uptake of Tc99m-MAG3 [2]: 0.66
Liver: ratio of uptake of compound to uptake of Tc99m-MAG3 [2]: 0.79
Remainder / Rest of the body: ratio of uptake of compound to uptake of Tc99m-MAG3 [2]: 1.45
Renal (system): ratio of uptake of compound to uptake of Tc99m-MAG3 [2]: 0.96
Stomach: ratio of uptake of compound to uptake of Tc99m-MAG3 [2]: 1.40
Urine: ratio of uptake of compound to uptake of Tc99m-MAG3 [2]: 0.99
Secretion characteristics / organ distribution compared with Tc99m-MAG3 (in words) [2]: more favourable organ distribution than Tc99m-MAG3

O=C([O-])CNC(=O)c1ccccc1[131I].[Na+] [iodo-131-Hippuran]
Secretion by the kidneys (in words) [3]: secreted actively tubularly

Tc99m-mercaptoacetylglycylglycylglycine [Tc99m-MAG3]
Secretion by the kidneys (in words) [3]: secreted by the kidneys selectively and slightly faster than iodo-Hippuran

Tc99m-mercaptoacetylglycyl-D-alanylglycine [Tc99m-MAGAG-DB]
Blood: ratio of uptake of compound to uptake of Tc99m-MAG3 [2]: 1.20
Hepatic (system): ratio of uptake of compound to uptake of Tc99m-MAG3 [2]: 0.59
Intestines: ratio of uptake of compound to uptake of Tc99m-MAG3 [2]: 0.41
Kidneys: ratio of uptake of compound to uptake of Tc99m-MAG3 [2]: 0.37
Liver: ratio of uptake of compound to uptake of Tc99m-MAG3 [2]: 0.68
Remainder / Rest of the body: ratio of uptake of compound to uptake of Tc99m-MAG3 [2]: 0.94
Renal (system): ratio of uptake of compound to uptake of Tc99m-MAG3 [2]: 1.07
Stomach: ratio of uptake of compound to uptake of Tc99m-MAG3 [2]: 0.85
Urine: ratio of uptake of compound to uptake of Tc99m-MAG3 [2]: 1.14
Secretion characteristics / organ distribution compared with Tc99m-MAG3 (in words) [2]: significantly better than those of Tc99m-MAG3

Tc99m-mercaptoacetylglycyl-D-alanylglycine [Tc99m-MAGAG-DA]
Blood: ratio of uptake of compound to uptake of Tc99m-MAG3 [2]: 1.12
Hepatic (system): ratio of uptake of compound to uptake of Tc99m-MAG3 [2]: 0.60
Intestines: ratio of uptake of compound to uptake of Tc99m-MAG3 [2]: 0.44
Kidneys: ratio of uptake of compound to uptake of Tc99m-MAG3 [2]: 0.36
Liver: ratio of uptake of compound to uptake of Tc99m-MAG3 [2]: 0.68
Remainder / Rest of the body: ratio of uptake of compound to uptake of Tc99m-MAG3 [2]: 0.90
Renal (system): ratio of uptake of compound to uptake of Tc99m-MAG3 [2]: 1.05
Stomach: ratio of uptake of compound to uptake of Tc99m-MAG3 [2]: 0.83
Urine: ratio of uptake of compound to uptake of Tc99m-MAG3 [2]: 1.13
Secretion characteristics / organ distribution compared with Tc99m-MAG3 (in words) [2]: significantly better than those of Tc99m-MAG3
